From US20100204258A1, “METHODS AND COMPOSITIONS FOR MODULATING INSULIN SECRETION AND GLUCOSE METABOLISM” (The Trustees of Columbia University in the City of New York, priority 2007, published 2010)
“Also recorded” adds a separate entry of the source.

How the values were obtained:
Lewis rats [1] = experiment: IPGTT with TBZ, emetine and Compound 6 (FIG. 12); assay type: in vivo, rat; details: single dose 2-3 mg/kg body weight
Protocol: Experimental animals. All animal studies were conducted as described in Example 1. […] Rats received injections of vehicle alone (10% DMSO in saline) or reserpine (in saline). Animals recovered fully before receiving IPGTT. Blood glucose, insulin, glucagon and intraperitoneal glucose tolerance tests measurements. […] The fasting blood glucose (BG) levels of the rats were measured using an Accu-Check blood glucose monitoring system (Roche Diagnostics, Sommerville, N.J.). Intraperitoneal glucose tolerance tests (IPGTT) were performed in 6 hour fasting un-anaesthetized animals. Briefly, after baseline BG measurements, animals received an intraperitoneal (i.p.) injection of 1 gram glucose/kilogram body weight. To minimize stress during the procedure, rats were handled by the same operator during acclimatization and later during weighing and IPGTT. Blood samples (approximately 30 μl) were collected at baseline and then again 15, 30, 45, 60, 90, and 120 minutes following i.p. glucose. BG concentrations were measured immediately on these samples and the remainder processed.

diabetic Lewis rats = experiment: IPGTT in streptozotocin-induced diabetic Lewis rats; assay type: in vivo, rat
Protocol: (§1) Experimental animals. All animal studies were reviewed and approved by the Institutional Animal Care and Use Committee (IACUC) at Columbia University's Medical School. All experiments were performed in accordance with the IACUC approved procedures. Normal male Lewis rats (100-400 grams) were obtained from Taconic (Taconic Inc., Germantown, N.Y.) and were housed under conditions of controlled humidity (55±5%), temperature (23±1° C.), and lighting (light on: 06.00-18.00 hours) with free access to standard laboratory rat chow and water. Rats were handled daily to minimize nonspecific stress for more than 7 days before the experiments began. In most experiments, it was necessary to measure blood glucose in fasting animals. For these groups, food was removed at the beginning of the light cycle, 6 hours before glucose levels were measured. Diabetes mellitus was induced by intraperitoneal injection of streptozotocin (Sigma Chemical Co., St. Louis, Mo.) (25 to 50 mg/kg) to animals (100 to 150 grams) that had been fasted 4 hours to enhance the effectiveness of STZ treatment.
(§2) The STZ solution was prepared fresh by dissolving it in 0.1 M citrate buffer (pH 5.5) and terminally sterile filtered. Control Lewis age and weight matched rats received a 0.5 ml/kg citrate vehicle alone via intraperitoneal injection. Sixty minutes prior to intraperitoneal glucose tolerance testing (IPGTT), anesthesia of male Lewis rats was induced with isoflurane (3-4% in oxygen) and maintained with 1-2% isoflurane in oxygen. Anaesthetized rats were administered TBZ at the indicated dose by intravenous (i.v.) injection using the penile vein. TBZ was dissolved in neat sterile dimethylsulfoxide (DMSO) and diluted (always more than 10 fold) in sterile saline. Rats received injections of vehicle alone (10% DMSO in saline) or reserpine (in saline). Animals recovered fully before receiving IPGTT.
Blood glucose, insulin, glucagon and intraperitoneal glucose tolerance tests measurements. Blood samples were collected from a superficial blood vessel in the tails of the rats following 6 hours of fasting between 12:00 noon and 2:00 p.m. The fasting blood glucose (BG) levels of the rats were measured using an Accu-Check blood glucose monitoring system (Roche Diagnostics, Sommerville, N.J.). […] BG concentrations were measured immediately on these samples and the remainder processed.
Plasma was immediately separated by centrifugation at 3000×g for 15 minutes and then stored at −20° C. until analysis. […] The area under the IPGTT glucose concentration×time curve (AUCIPGTT) was calculated by the trapezoidal rule. The area under the insulin or glucagon concentration×time curve (AUC INS or AUC GCG) was calculated in a similar manner.

human islets = experiment: Glucose-stimulated insulin secretion of purified human cadaveric islets ex vivo; assay type: cell-based; details: absence of high glucose stimulation; data not shown
Protocol: Human islet tissue and glucose-stimulated insulin secretion. The islet tissue used in these studies was obtained with institutional review board approval. Pancreas digestion and islet isolation were performed using minor modifications of the Edmonton purification protocol. (Shapiro, […] al. “Islet […] in seven patients with type I diabetes mellitus using a glucocortoid-free immunosuppressive regimen.” New England Journal of Medicine 343(4):230-8, (2000)) The determination of islet cell mass, viability, and purity were also performed. Purified islets were cultured in CMRL 1066 culture media with 10% fetal bovine serum at 37° C. in humidified air (5% CO2) for 18 to 24 hours. The human islet insulin secretory response was performed according to a procedure described by the Edmonton group. (Id.) Briefly, after an overnight culture, islets were incubated with either low or high concentrations of glucose for 2 hours at 37° C. and 5% CO2. The supernatant was collected for insulin measurement. Insulin concentrations in these experiments were analyzed with a human insulin enzyme-linked immunosorbent assay (ELISA) kit (ALPCO Insulin ELISA kit, Windham, N.H.). In some experiments TBZ, DTBZ or epinephrine was added to the cultures before glucose stimulation.

Lewis rats [2] = experiment: Intraperitoneal glucose tolerance test (IPGTT) in normal Lewis rats after a single i.v. dose; assay type: in vivo, rat; details: for blood glucose excursion during IPGTT: Lewis rats 9-11 week old, 1.6 μg/gm body weight i.v. 60 min before IPGTT, vs vehicle
Protocol: as §1, §2
(§3) Blood glucose, insulin, glucagon and intraperitoneal glucose tolerance tests measurements. Blood samples were collected from a superficial blood vessel in the tails of the rats following 6 hours of fasting between 12:00 noon and 2:00 p.m. The fasting blood glucose (BG) levels of the rats were measured using an Accu-Check blood glucose monitoring system (Roche Diagnostics, Sommerville, N.J.). Intraperitoneal glucose tolerance tests (IPGTT) were performed in 6 hour fasting un-anaesthetized animals. Briefly, after baseline BG measurements, animals received an intraperitoneal (i.p.) injection of 1 gram glucose/kilogram body weight. To minimize stress during the procedure, rats were handled by the same operator during acclimatization and later during weighing and IPGTT. Blood samples (approximately 30 μl) were collected at baseline and then again 15, 30, 60, 90, and 120 minutes following i.p. glucose administration. BG concentrations were measured immediately on these samples and the remainder processed.
(§4) Plasma was immediately separated by centrifugation at 3000×g for 15 minutes and then stored at −20° C. until analysis. Insulin and glucagon concentration measurements in rat plasma were performed by ELISA as per the manufacturer's instructions using kits from Linco Research Inc. (St. Charles, Mo.) and Alpco Diagnostics (Salem, N.H.), respectively. To validate the test, saline injections were performed by the same method. […] The area under the IPGTT glucose concentration×time curve (AUCIPGTT) was calculated by the trapezoidal rule. The area under the insulin or glucagon concentration×time curve (AUC INS or AUC GCG) was calculated in a similar manner.

[3] = system: plasma insulin and glucagon; experiment: Plasma insulin and glucagon (ELISA) during IPGTT; assay type: in vivo, rat
Protocol: as §3, §4

**Q.** With `COc1cc2c(cc1OC)C1CC(=O)C(CC(C)C)CN1CC2` (stereo not shown) [TBZ, tetrabenazine] as the compound, how does the “blood glucose excursion during IPGTT” value (Lewis rats [1]) read?
**A.** consistently reduced the blood glucose excursion

**Q.** And the “area under the curve from IPGTT” value (Lewis rats [1]; separate experiments)?
**A.** depress the area under the curve; also recorded: consistently suppressed the area under the curve

**Q.** What about the “blood glucose excursion during IPGTT” value (diabetic Lewis rats; STZ-diabetic Lewis rats, 1.6 μg/gm, vs vehicle) of the same compound?
**A.** reduces the blood glucose excursion

**Q.** And the “blood glucose levels before i.p. glucose challenge” value (diabetic Lewis rats; STZ-diabetic rats, around sixty minutes following i.v. injection)?
**A.** returned to control or near normal levels

**Q.** What about the “area under the curve in the IPGTT” value (diabetic Lewis rats; STZ-diabetic rats, following glucose challenge) of the same compound?
**A.** smaller area under the curve

**Q.** And the glucose tolerance-enhancing effects (diabetic Lewis rats; animals with initial untreated AUC IPGTT>50,000 minutes×mg/dl, data not shown)?
**A.** not observed

**Q.** And the “insulin secretion of human islets” value (human islets)?
**A.** not observed

**Q.** What about the “reduction of the glucose excursion (areas under the curve during IPGTT)” value (Lewis rats [2]; 1.6 μg/gbm (gram body weight) i.v.) of the same compound?
**A.** 40-50%

**Q.** And the “AUC IPGTT, controls vs TBZ treated animals” value (Lewis rats [2]; 1.6 μg/gm body weight, n=4 experiments, p<0.05)?
**A.** significantly higher

**Q.** What about the “rise in glucose concentration around 15 minutes after injection” value (Lewis rats [2]; IPGTT following TBZ administration) of the same compound?
**A.** blunted

**Q.** What about the “blood glucose excursion during IPGTT” value (Lewis rats [2]) of the same compound?
**A.** reduces the blood glucose excursion

**Q.** And the “blood glucose excursion during IPGTT” value (Lewis rats [2]; listed as tetrabenazine)?
**A.** significant change in the size and shape of the glucose disposition curve

**Q.** What about the “baseline fasting glucose concentration” value (Lewis rats [2]; following TBZ administration, before glucose challenge, data not shown) of the same compound?
**A.** no reproducible differences

**Q.** And the “dose response of AUC IPGTT (normalized to baseline)” value (Lewis rats [2]; varying doses of TBZ before IPGTT)?
**A.** reduces the blood glucose excursion in a dose dependent manner; also recorded: complex dose response effect

**Q.** And the “plasma insulin levels during IPGTT” value ([3]; TBZ 1.6 μg/gm and glucose challenge, vs vehicle treated controls)?
**A.** alters; also recorded: greater

**Q.** And the “AUC INS with treatment relative to AUC INS of control animals” value ([3]; four out of five experiments)?
**A.** greater than two fold

**Q.** What about the “plasma glucagon levels during IPGTT” value ([3]; i.v. TBZ 1.6 μg/gm and glucose challenge, relative to controls) of the same compound?
**A.** alters; also recorded: generally lower

**Q.** And the “baseline plasma concentrations of glucagon” value ([3]; prior to glucose challenge, not statistically significant)?
**A.** sometimes lower than controls

**Q.** And the “AUC GCG, less than that of control animals” value ([3]; three of five experiments)?
**A.** 75%-85%
